Measurements as given in patent US7423030B2, “1-amino-phthalazine derivatives, the preparation and the therapeutic use thereof” (Sanofi-Aventis, priority 2004, dated 2008).
Structures can show the parent of a compound that is named as a salt.

molecular target: MCH1 receptor (UniProt P97639); assay: Displacement of [125I]-Tyr-S36057 binding to MCH1 receptors on brain membrane preparations; conditions: rat and/or mouse brain membranes, 50 pM [125I]-Tyr-S36057, room temperature, 30 minutes; read-out: IC50 (concentration that inhibits 50% of the specific binding)
Procedure: The compounds according to the invention underwent pharmacological tests. Their affinity towards the receptor 1 of Melamin-Concentrating Hormone (MCH), MCH1 was determined by these means.
The tests consisted in measuring the in vitro activity of the compounds of the invention on the MCH1 receptors of MCH.
The measurement of the affinity of the compounds of the invention for the MCH receptors was performed by studying the displacement of the binding of a radiolabelled derivative of MCH to the MCH1 receptors. This study was performed on rat and/or mouse brain membrane preparations according to the protocol described below.
In anticipation of the binding studies, the brains are diluted in HEPES buffer 25 mM (pH: 7.4) containing MgCl2 5 mM, CaCl2 1 mM, homogenized using a Polytron blender for 3 times 20 seconds (speed 25), and are then ultracentrifuged at 22 000 rpm and at +4° C. for 30 minutes. […]
The incubation is performed at room temperature for 30 minutes, and then stopped by rapid addition of ice-cold HEPES buffer 25 mM (pH: 7.4) supplemented with 0.2% bovine serum albumin, and by filtration through GF/B glass fibre filters preincubated for 2 hours in an aqueous 0.1% polyethyleneimine solution. The radioactivity retained on the filters is measured using a Gamma scintillation counter. The non-specific binding is determined in the presence of 1 μM of non-radiolabelled S36057. […]

Compound | IC50
COc1ccc(-c2nnc(NC3CCN(Cc4ccccc4)CC3)c3cc(OC)cc(OC)c23)cc1 [Example 2, N-(1-benzylpiperidin-4-yl)-5,7-dimethoxy-4-(4-methoxyphenyl)phthalazin-1-amine] | 0.072 µM
c1ccc(-c2ccc3c(-c4ccccc4)nnc(NC4CCN(Cc5ccc6ccccc6c5)CC4)c3c2)cc1 [Example 42, 4,7-diphenyl-N-[1-(naphthalen-2-ylmethyl)piperidin-4-yl]-phthalazin-1-amine dihydrochloride] | 0.36 µM

test system: MCH1 receptor; assay: not given; conditions: social conflict and forced swimming in rats, maternal separation in guinea pigs; cited from earlier work

Compound | behavioural profile in animal models
COCC1=C(C(=O)OC)[C@H](c2ccc(F)c(F)c2)N(C(=O)NCCCN2CCC(c3cccc(NC(C)=O)c3)CC2)C(=O)N1 [SNAP-7941] | anxiolytic and/or antidepressant profile

test system: not given; assay: not given; conditions: not given

Compound | melting point
COc1ccc(-c2nnc(NC3CCN(Cc4ccc(NC=O)cc4)CC3)c3cc(OC)ccc23)cc1.Cl.Cl (hydrate or solvate) | 293 °C
COc1ccc(CN2CCC(Nc3nnc(-c4ccc(OC)cc4)c4ccc(OC)cc34)CC2)cc1.Cl.Cl (hydrate or solvate) | 216 °C
COc1ccc(-c2nnc(NC3CCN(Cc4ccccc4)CC3)c3cc(OC)cc(OC)c23)cc1 [Compound 11, N-(1-benzylpiperidin-4-yl)-5,7-dimethoxy-4-(4-methoxyphenyl)phthalazin-1-amine] | 168 °C
COc1cc(OC)c2c(Cc3ccccc3)nnc(NC3CCN(Cc4ccc5ccccc5c4)CC3)c2c1 [Compound 22, 4-Benzyl-5,7-dimethoxy-N-[1-(naphthalen-2-ylmethyl)piperidin-4-yl]phthalazin-1-amine] | 163 °C
COc1ccc(-c2nnc(NC3CCN(Cc4ccc(C)c(F)c4)CC3)c3cc(OC)ccc23)cc1 [Compound 74, N-[1-(3-fluoro-4-methylbenzyl)piperidin-4-yl]-7-methoxy-4-(4-methoxyphenyl)phthalazin-1-amine] | 210 °C
COc1ccc2c(C)nnc(NC3CCN(Cc4ccc5ccccc5c4)CC3)c2c1 [Compound 95, 7-Methoxy-4-methyl-N-[1-(naphthalen-2-ylmethyl)piperidin-4-yl]phthalazin-1-amine] | 188 °C
Fc1ccc(-c2nnc(NC3CCN(Cc4ccc5ccccc5c4)CC3)c3cc(F)ccc23)cc1 [Compound 106, 7-Fluoro-4-(4-fluorophenyl)-N-[1-(naphthalen-2-ylmethyl)piperidin-4-yl]phthalazin-1-amine] | 207 °C
COc1ccc(-c2nnc(NC3CCN(Cc4ccc5[nH]cnc5c4)CC3)c3cc(OC)ccc23)cc1 [Compound 138, N-[1-(1H-benzimidazol-5-ylmethyl)piperidin-4-yl]-7-methoxy-4-(4-methoxyphenyl)phthalazin-1-amine] | 267 °C
COc1ccc2c(CO)nnc(NC3CCN(Cc4ccc5ccccc5c4)CC3)c2c1 [Example 48, 4-Hydroxymethyl-7-methoxy-N-[1-(naphthalen-2-ylmethyl)piperidin-4-yl]phthalazin-1-amine] | 102 °C
